Data published in patent US20160082082A1, “USE OF THERAPEUTIC PEPTIDES FOR THE TREATMENT AND PREVENTION OF CANCER” (ARIZONA CANCER THERAPEUTICS L.L.C., priority 2008, published 2016).
Values joined by “and” are separate entries in the source; they are usually repeats but may differ in a detail not shown here. Equal values may be shown once. Where no end group is shown, it is not given here.

Experiments:
[1] = system: BT-20 breast cancer cells; experiment: Cellular uptake of labelled peptide (fluorescence microscopy); assay type: cell-based, human; conditions: cells pulsed in vitro
Description: FIGS. 1A-1F. […] FIG. 1A) Human MUC1's cytoplasmic amino acid sequence (MUC1CT; SEQ ID NO: 15), which includes an EGFR/src phosphorylation site (underline; SEQ ID NO: 15, residues 46-49) and β-catenin binding site (double underline; SEQ ID NO: 15, residues 50-59). […] The cells were treated with EGF (30′ EGF, 10 ng/ml) or without (-S, no serum) and protein lysates were generated and separated on an SDS-PAGE. The lysates were immunoblotted (IB) for EGFR (1005) and β-actin (AC-15) FIG. 1D-F MDA-MB-468 cells were treated with EGF (10 ng/ml) and either (FIG. 1D) hPMIP (10 μM), (FIG. 1E) PTD4 (10 μM) or (FIG. 1F) PBS overnight. The cells were fixed, probed for MUC1 (Texas Red) and β-catenin (FITC) and examined on a confocal microscope (400×). Co-localization (arrows) analysis was performed using Image Pro Plus and is designated with white pixels.
BT20 cells were treated for 2 hours with 200 μM hPMIP tagged with FITC and fixed in 4% Paraformaldhyde/PBS. Fixed cells were washed 3 times with 0.02% NaN3/PBS and incubated with Slowfade Gold antifade reagent with DAPI (Invitrogen). Cells were visualized with a fluorescence DMLB Leica compound microscope. […]

[2] = system: MDA-MB-231 breast cancer cells implanted into the mammary fat pad of scid mice; experiment: Human breast tumor xenograft in mammary fat pad; assay type: in vivo
Description: FIGS. 3A-3E. […] FIG. 3A) MDA-MB-231 cells in Matrigel were injected into the mammary fat pad of scid mice, and daily peptide treatment (50 μg/g body weight of hPMIP or PTD4) began when tumors reached 100 mm^3 (PTD4 and hPMIP n=8) and primary tumor growth was assessed (*, p=0.028). FIG. 3B) After the end of treatment, the amount of time the tumors took to progress to 1000 mm^3 was measured (ANOVA, **, p=0.03). […] FIG. 3D) MDA-MB-231 cells in Matrigel were injected into the mammary fat pad of scid mice, and daily peptide treatment (50 μg/g of hPMIP or PTD4) began when tumors reached 500 mm^3 (PTD4 n=4 and hPMIP n=6) and primary tumor growth was assessed. FIG. 3E) Following 21 days of treatment the tumors were resected immediately and tumor regrowth at the primary site and spread to secondary mammary glands was monitored (PTD4 n=4 and hPMIP n=4). Error bars represent standard error.
Immunocompromised (severe combined immune deficiency (scid)) mice (Taconic, Rockville, Md.) were tested for the presence of serum IgG and found to be <20 μg/ml IgG. Female mice (four to six weeks old) were injected with 1×10^7 cells embedded in Matri-gel (BD Biosciences) into the mammary fat pad and allowed to grow to either 100 mm^3 or 500 mm^3, based on the formula a^2×b/2 where a is the smaller diameter and b is the larger diameter. Mice were injected i.p. with 50 μg/g body weight of either PMIP or PTD4 control peptide for 21 days and measured with calipers every two days. Either at the end of 21 days, or after the tumor had reached 800 mm^3, tumors were resected by injecting the mice with buprenorphine (2.5 mg/kg body weight, Infusion Solutions, Totowa, N.J.) at least one hour prior to resection and anesthetizing the mice with isoflurane (Abbott, Abbott Park, Ill.). Following surgery, mice were treated with buprenorphine (2.5 mg/kg body weight) 8 and 16 hrs post-surgery. Animals were then followed for 10 days to examine regrowth at the primary tumor site or at secondary mammary glands, then sacrificed.

[3] = system: MMTV-pyV mT induced mammary gland tumors; experiment: MMTV-pyV mT transgenic mouse spontaneous breast cancer; assay type: in vivo, mice; conditions: for number of established tumors that completely regressed: PTD4 n=60, PMIP n=70 tumor sites
Description: FIGS. 4A-4D. […] FIG. 4A) MMTV-pyV mT transgenic mice were injected with FITC-msPMIP (50 μg/g body weight), sacrificed four hours later and various tissues visualized using fluorescence microscopy. FITC-msPMIP localization in the mouse mammary gland tumors is shown (2.5× and 8×). FIG. 4B) Mammary gland tumors (>0.5 cm in diameter) were allowed to develop and mice were injected daily (50 μg/g body weight, 21 day treatment, intraperitoneal (i.p.) injection, 1× per day) with either msPMIP (7 mice) or PTD4 (6 mice). At the end of treatment, animals were sacrificed and proteins lysates made of the tumors for later analysis. […] Numbers above data are number of tumors that meet the size criteria over the total potential tumor sites.
MMTV-pyV mT mice (33), obtained from Jackson Laboratories) entered into study upon the development of tumors that measured ≧0.5 cm in at least one diameter. Only mice greater than seven weeks of age were included in the study and mice that developed fluid cysts were excluded. Animals were injected i.p. with 50 μg/g body weight of msPMIP or PTD4 once daily for 21 days. Each of ten mammary glands were measured using calipers every two days, and measurements were used to determine tumor volume based on the formula a^2×b/2, with a being the smaller diameter and b being the larger diameter. After treatment for 21 days, mice were sacrificed by CO2 inhalation and tissues resected. Several msPMIP treated mice were injected with FITC-msPMIP (50 μg/g body weight) one or four hours prior to sacrifice and intact tissues were visualized using a fluorescence MZFLIII Leica dissection microscope.

MDA-MB-231 cells = experiment: Invasion assay (Transwell into Type I collagen); assay type: cell-based, human; conditions: MDA-MB-231, 50 μM, vs PTD4 or PBS
Description: FIGS. 2A-2C. […] FIG. 2A) BT20 cells were cultured in a 96-well dish (10^4 cells/well) and treated daily for 6 days with either hPMIP (10 μM) or PTD4 (10 μM) in RPMI 1640/1% FBS. An MTT assay was performed to quantify cell number after treatment was complete (***, p<0.0001). Error bars represent standard error. FIG. 2B) MDA-MB-231 and FIG. 2C) BT20 cell lines were treated with either hPMIP (50 μM), PTD4 (50 μM), or PBS overnight, labeled with Calcein AM, allowed to invade through a Transwell (8.0 μM) insert into a Type I collagen gel, and the invaded cells were fluorescently measured. (ANOVA, *p<0.0001, **p<0.0001, #p=0.007, ##p=0.007). Error bars represent standard deviation.
Collagen matrix (0.9 mg/ml Type I Rat tail collagen (BD Biosciences, Billerica, Mass.), 83.0% (v/v) M-199 medium (Life Technologies), and 0.18% NaHCO3 (Fisher, Hampton, N.H.)) was poured into a 24 well plate. Prior to collagen polymerization a […] pore transwell insert (Corning Inc., Corning, N.Y.) was placed on top of the matrix. The polymerized collagen was rehydrated using a chemoattractant (20% FBS/RPMI 1640 with […] EGF). MDA-MB-231 cells were treated with 50 μM of peptide in serum free RPMI 1640 media for 17 hours. […] The number of fluorescently labeled cells that had invaded into the collagen were measured using a Molecular Devices spectrophotometer (Ex:485, Em:538, and Cutoff:530).

[4] = system: human breast cancer cell line MDA-MB-231; experiment: Annexin V and cell number quantification on plastic; assay type: cell-based; conditions: MDA-MB-231 grown on plastic
Source text: These cells were chosen as they represent models of high and low MUC1 expression, respectively (data not shown).

[5] = system: MMTV-pyV mT induced mammary gland tumors; experiment: MMTV-pyV mT transgenic mouse spontaneous breast cancer; assay type: in vivo; conditions: human peptide in MMTV-pyV mT mice
EGFR = target: T1, EGFR (Mus musculus, UniProt Q01279); experiment: Immunoblot of tumor lysates after EGF and peptide injection; assay type: in vivo, MMTV-pyV mT mice; conditions: EGF and peptide 30 minutes prior to sacrifice, after 21 day treatment
T1 construct: we generated protein lysates from tumors of MMTV-pyV mT animals injected with EGF and peptide; from tissue; host or cells: mammary gland tumours of MMTV-pyV mT mice
Description: (§1) FIGS. 6A-6B. PMIP is associated with reduced Mud 1 expression. FIG. 6A) A representative MMTV-pyV mT msPMIP (P) treated mouse and a PTD4 mouse (C) were each injected 30 minutes prior to sacrifice with epidermal growth factor (1 μg/g body weight) and with peptide. Following sacrifice the tumors were collected and protein lysates were generated. Protein (50 μg) was separated by SDS-PAGE, transferred and immunoblotted for expression of phosphotyrosine (PY99), EGFR (1005), Muc1 (CT2), and β-actin (AC-15). FIG. 6B) Lysates from MDA-MD-231 xenograft tumors (not treated with EGF; described in […]) were similarly analyzed to determine levels of EGFR and MUC1 protein expression. Relative protein levels of Muc1 were measured by densitometry and graphed (Muc1/β-actin, ANOVA, *p=0.014). Molecular weights are shown on the right. IB=immunoblot. White lines through blots indicate same gel and exposure but were non-contiguous.
To determine if msPMIP was affecting EGF-dependent degradation of EGFR, we generated protein lysates from tumors of MMTV-pyV mT animals injected with EGF and peptide 30 minutes prior to animal sacrifice (after a standard 21 day drug treatment).

Muc1 [6] = experiment: Immunoblot of transgenic tumor lysates for Muc1; assay type: in vivo, MMTV-pyV mT mice; conditions: MMTV-pyV mT model
Description: as §1
(§2) To determine if msPMIP blocked interaction between Muc1 and β-catenin, we began by establishing levels of Muc1 protein expression in the tumor lysates. […] While the mechanism of this loss is unknown, it would certainly result in a loss of Muc1-dependent oncogenic signaling.

MUC1 [7] = experiment: Immunoblot of xenograft tumor lysates for MUC1; assay type: in vivo, scid mice (MDA-MB-231 xenograft); conditions: MDA-MB-231 xenograft model
Description: as §1, §2

FITC-hPMIP: FITC-labeled PTD4 conjugated to MIP peptides (human) (YARAAARQARAPYEKVSAGNGGSSLS; not fully specified (N-terminus); also: FITC label, place not given here)
presence and retention of fluorescent peptide in cells [1]: found to contain the fluorescent peptide and it was retained over time

PTD4: PTD4 protein transduction domain, SEQ ID NO: 16, used as control peptide (YARAAARQARA; synthetic protein translocation domain)
average tumor volume of regrowth / secondary mammary gland tumors after resection ([2]; treatment begun at 500 mm^3, 50 μg/g i.p. 21 days, resection, 10 days follow-up without drug): 760 mm^3 | number of tumors sized 100-300 mm^3, end vs beginning of treatment ([3]; 50 μg/g i.p. daily, 21 days): doubled | tumor growth rate ([3]; 50 μg/g i.p. daily, 21 days): 69 mm^3/day | tumors larger than 100 mm^3 (of possible tumor sites) ([3]; 50 μg/g i.p. daily, 21 days): 47% | tumors that grew larger than 500 mm^3 by the end of the study ([3]; 50 μg/g i.p. daily, 21 days): 13% | total tumor growth for all tumor sites ([3]; 50 μg/g i.p. once daily, over 21 days of treatment): 589.5%±283.6% and ~590% | number of established tumors that completely regressed ([3]; 21 day treatment): none

hPMIP: human PMIP, SEQ ID NO: 17: MUC1 mimetic 15 amino acid peptide in tandem with PTD4 protein transduction domain (YARAAARQARAPYEKVSAGNGGSSLS; fusion protein)
invasion into Type I collagen matrix (MDA-MB-231 cells): strongly inhibited cellular invasion | effect on apoptosis (Annexin V) [4]: no detectable effects | effect on cell growth (cell number) [4]: no detectable effects | primary tumor size vs control ([2]; treatment begun at 100 mm^3, 50 μg/g i.p. 21 days, p=0.028): significant decrease in tumor size | length of time to reach resection size of 800 mm^3 ([2]; treatment begun at 100 mm^3, after end of treatment, p=0.03): significant increase in the length of time | tumor regrowth and spread 10 days after resection ([2]; treatment begun at 100 mm^3, resection at 800 mm^3): substantially decreased | number of regrowth and secondary mammary gland tumors ([2]; treatment begun at 500 mm^3, after resection): found in equal number for both treatment groups | effect on tumor growth [5]: no effect on tumor growth

msPMIP: mouse PMIP, SEQ ID NO: 18: mouse Muc1 mimetic peptide in tandem with PTD4 protein transduction domain (YARAAARQARAPYEEVSAGNGSSSLS; fusion protein)
number of tumors sized 100-300 mm^3, end vs beginning of treatment ([3]; 50 μg/g i.p. daily, 21 days): remained the same | tumors larger than 100 mm^3 (of possible tumor sites) ([3]; 50 μg/g i.p. daily, 21 days): 27% | tumors that grew larger than 500 mm^3 by the end of the study ([3]; 50 μg/g i.p. daily, 21 days): 1% | number of established tumors that completely regressed ([3]; 21 day treatment): four | tumor initiation (percent of tumor transitions from 0 mm^3 to 100 mm^3) ([3]; during drug treatment, p=0.0045): significant decrease | frank tumors remaining after treatment ([3]; one representative mouse, 21 day treatment): no frank tumors remaining | expression of EGFR in tumor lysates (EGFR): striking reduction | phosphotyrosine in tumor lysates (EGFR): striking reduction | Muc1 protein expression in tumor lysates (Muc1 [6]): induced a loss of Muc1 protein expression | Muc1 protein expression in tumor lysates (MUC1 [7]): induced a loss of Muc1 protein expression
